Source: US7307095B2, “Inhibitors of cathepsin S” (IRM LLC, priority 2003, dated 2007)

Assays:
Format in all cases: biochemical
Cathepsin S = Cathepsin S (Homo sapiens, UniProt P25774); experiment: Cathepsin S inhibition, fluorogenic peptide substrate kinetic assay; details: Cathepsin S inhibition constant; read-out: Ki Cat. S
Procedure: (§1) The optimal substrate for cathepsin S, acetyl-histidine-proline-valine-lysine-amino carbamoyl coumarin, was identified from screening a combinatorial library of fluorogenic peptide substrates (Harris, J. L., B. J. Backes, et al. Proc Natl Acad Sci USA 2000, 97(14), 7754-9). Kinetic measurements are performed in a total reaction volume of 30 μl in 384-well microtiter plates. […] Control reactions in the absence of inhibitor are performed in replicates of 24. The reactions are initiated by adding the substrate, acetyl-histidine-proline-valine-lysine-amino carbamoyl coumarin, to a final concentration of 50 μM. The rate of substrate hydrolysis is measured by monitoring the increase in fluorescence at an excitation wavelength of 380 nm and an emission wavelength of 450 nm that results from cleavage of the aniline bond in the substrate by the enzyme. The apparent inhibition constants for the compounds are determined from the enzyme progress curves (Kuzmic, P., K. C. Elrod, et al. Anal Biochem 2000, 286(1), 45-50) and are then used to calculate the inhibition constants for competitive inhibitors.

Cathepsin L = Cathepsin L (Homo sapiens, UniProt P07711); experiment: Cathepsin L inhibition, fluorogenic peptide substrate kinetic assay (selectivity ratio vs cathepsin S); details: ratio of cathepsin L inhibition constant to cathepsin S inhibition constant
Chain of Cathepsin L (P07711 114-333, species assumed): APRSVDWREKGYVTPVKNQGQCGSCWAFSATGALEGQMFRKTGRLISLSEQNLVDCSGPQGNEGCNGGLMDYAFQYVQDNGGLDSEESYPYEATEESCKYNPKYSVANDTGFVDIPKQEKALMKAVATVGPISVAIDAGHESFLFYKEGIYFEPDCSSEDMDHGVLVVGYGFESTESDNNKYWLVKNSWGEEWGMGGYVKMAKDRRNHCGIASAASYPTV
Procedure: as §1, with “cathepsin L, acetyl-histidine-lysine-phenylalanine-lysine-amino” for “cathepsin S, acetyl-histidine-proline-valine-lysine-amino”, “substrate, acetyl-histidine-lysine-phenylalanine-lysine-amino” for “substrate, acetyl-histidine-proline-valine-lysine-amino”, “of 20” for “of 50”, “curves ([…].” for “curves (Kuzmic, P., K. C.”, “inhibitors. Selectivity for cathepsin S in the presence of cathepsin isozymes was determined by the ratio of the cathepsin isozyme inhibition constant of a compound of the present invention to the cathepsin S inhibition constant of the same compound.” for “inhibitors.”

Cathepsin B = Cathepsin B (Homo sapiens, UniProt P07858); experiment: Cathepsin B inhibition, fluorogenic peptide substrate kinetic assay (selectivity ratio vs cathepsin S); details: ratio of cathepsin B inhibition constant to cathepsin S inhibition constant
Procedure: (§2) Kinetic measurements are performed in a total reaction volume of 30 μl in 384-well microtiter plates. […] Control reactions in the absence of inhibitor are performed in replicates of 24. The reactions are initiated by adding the substrate, acetyl-histidine-proline-valine-lysine-amino carbamoyl coumarin, to a final concentration of 10 μM. The rate of substrate hydrolysis is measured by monitoring the increase in fluorescence at an excitation wavelength of 380 nm and an emission wavelength of 450 nm that results from cleavage of the aniline bond in the substrate by the enzyme. The apparent inhibition constants for the compounds are determined from the enzyme progress curves ([…]. Elrod, et al. Anal Biochem 2000, 286(1), 45-50) and are then used to calculate the inhibition constants for competitive inhibitors. Selectivity for cathepsin S in the presence of cathepsin isozymes was determined by the ratio of the cathepsin isozyme inhibition constant of a compound of the present invention to the cathepsin S inhibition constant of the same compound.

Cathepsin K = target: T1, Cathepsin K (Homo sapiens, UniProt P43235); experiment: Cathepsin K inhibition, fluorogenic peptide substrate kinetic assay (selectivity ratio vs cathepsin S); details: ratio of cathepsin K inhibition constant to cathepsin S inhibition constant
T1 sequence (P43235 115-329): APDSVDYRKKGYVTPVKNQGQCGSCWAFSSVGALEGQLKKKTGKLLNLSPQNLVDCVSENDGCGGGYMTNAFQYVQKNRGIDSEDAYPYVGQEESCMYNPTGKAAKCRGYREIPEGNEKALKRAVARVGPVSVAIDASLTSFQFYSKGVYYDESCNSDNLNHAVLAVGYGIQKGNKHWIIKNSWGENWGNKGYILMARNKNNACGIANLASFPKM
Procedure: as §2, with “acetyl-lysine-histidine-proline-lysine-amino” for “acetyl-histidine-proline-valine-lysine-amino”, “40” for “10”

Chain of Cathepsin S (P25774 115-331, species assumed): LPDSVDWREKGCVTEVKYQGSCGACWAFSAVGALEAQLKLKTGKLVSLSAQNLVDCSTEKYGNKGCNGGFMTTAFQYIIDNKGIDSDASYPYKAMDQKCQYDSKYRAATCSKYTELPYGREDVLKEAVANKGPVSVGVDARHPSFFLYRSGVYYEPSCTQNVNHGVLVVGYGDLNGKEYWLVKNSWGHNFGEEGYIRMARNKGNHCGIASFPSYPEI

Compound | Ki (Cathepsin S) | Selectivity for Cat. S over Cat. L (Cathepsin L) | Selectivity for Cat. S over Cat. B (Cathepsin B) | Selectivity for Cat. S over Cat. K (Cathepsin K)
3-(S)-[2-(S)-(6-Chloro-benzooxazol-2-ylamino)-3-cyclohexyl-propionylamino]-4-(5-fluoro-2,3-dihydro-indol-1-yl)-butyric acid tert-butyl ester [Example 28] | < 1000 nM | ++ (++, >100) | ++ (++, >100) | ++ (++, >100)
CC(C)(C)C[C@H](Nc1nc2ccccc2o1)C(=O)N[C@@H](CC(=O)OC(C)(C)C)CN1CCc2cc(F)ccc21 [Example 3, 3-(S)-[2-(S)-(Benzooxazol-2-ylamino)-4,4-dimethyl-pentanoylamino]-4-(5-fluoro-2,3-dihydro-indol-1-yl)-butyric acid tert-butyl ester] | < 1000 nM | ++ (++, >100) | ++ (++, >100) | ++ (++, >100)
CC(C)(C)C[C@H](Nc1nc2ccccc2o1)C(=O)N[C@@H](CC(=O)O)CN1CCc2cc(F)ccc21 [Example 4, 3-(S)-[2-(S)-(Benzooxazol-2-ylamino)-4,4-dimethyl-pentanoylamino]-4-(5-fluoro-2,3-dihydro-indol-1-yl)-butyric acid] | < 100 nM | +++ (+++, >1000) | +++ (+++, >1000) | ++ (++, >100)
CC(C)(C)C[C@H](Nc1nc2ccccc2o1)C(=O)N[C@@H](CCS(C)(=O)=O)CN1CCc2cc(F)ccc21 [Example 5, 2-(S)-(Benzooxazol-2-ylamino)-4,4-dimethyl-pentanoic acid [1-(S)-(5-fluoro-2,3-dihydro-indol-1-ylmethyl)-3-methanesulfonyl-propyl]-amide] | < 100 nM | +++ (+++, >1000) | +++ (+++, >1000) | + (+, >10)
CC(C)(C)C[C@H](Nc1nc2ccccc2o1)C(=O)N[C@@H](COCc1ccccc1)CN1CCc2cc(F)ccc21 [Example 6, 2-(S)-(Benzooxazol-2-ylamino)-4,4-dimethyl-pentanoic acid (R)-[1-benzyloxymethyl-2-(5-fluoro-2,3-dihydro-indol-1-yl)-ethyl]-amide] | < 100 nM | +++ (+++, >1000) | +++ (+++, >1000) | + (+, >10)
CC(C)(C)C[C@H](Nc1nc2ccccc2o1)C(=O)N[C@@H](CO)CN1CCc2cc(F)ccc21 [Example 7, 2-(S)-(Benzooxazol-2-ylamino)-4,4-dimethyl-pentanoic acid [2-(5-fluoro-2,3-dihydro-indol-1-yl)-1-(R)-hydroxymethyl-ethyl]-amide] | < 100 nM | +++ (+++, >1000) | +++ (+++, >1000) | + (+, >10)
CC(C)(C)OC(=O)C[C@@H](CN1CCc2cc(F)ccc21)NC(=O)[C@H](CC1CCCCC1)Nc1nc2ccccc2o1 [Example 9, 3-(S)-[2-(S)-(Benzooxazol-2-ylamino)-3-cyclohexyl-propionylamino]-4-(5-fluoro-2,3-dihydro-indol-1-yl)-butyric acid tert-butyl ester] | < 100 nM | ++ (++, >100) | +++ (+++, >1000) | ++ (++, >100)
CC(C)(C)C[C@H](Nc1nccc2ccccc12)C(=O)NCCN1CCc2cc(F)ccc21 [Example 19, 2-(S)-(Isoquinolin-1-ylamino)-4,4-dimethyl-pentanoic acid [2-(5-fluoro-2,3-dihydro-indol-1-yl)-ethyl]-amide] | < 100 nM | + (+, >10) | +++ (+++, >1000) | 
Cc1sc(N[C@@H](CC2CCCCC2)C(=O)NCCN2CCc3cc(F)ccc32)nc1-c1ccccc1 [Example 20, (S)-3-Cyclohexyl-N-[2-(5-fluoro-2,3-dihydro-indol-1-yl)-ethyl]-2-(5-methyl-4-phenyl-thiazol-2-ylamino)-propionamide] | < 10000 nM |  | + (+, >10) | + (+, >10)
COC(=O)c1ccc2nc(N[C@@H](CC3CCCCC3)C(=O)N[C@@H](C)CNc3ccc(F)cc3)oc2c1 [Example 24, (S,S)2-{2-Cyclohexyl-1-[2-(4-fluoro-phenylamino)-1-methyl-ethylcarbamoyl]-ethylamino}-benzooxazole-6-carboxylic acid methyl ester] | < 100 nM |  |  | 
Cc1cc(NC[C@H](C)NC(=O)[C@H](CC2CCCCC2)Nc2nc3cccc(Cl)c3o2)no1 [Example 25, 2-(S)-(7-Chloro-benzooxazol-2-ylamino)-3-cyclohexyl-N-[1-(S)-methyl-2-(5-methyl-isoxazol-3-ylamino)-ethyl]-propionamide] | < 10000 nM |  |  | 
O=C(O)C[C@@H](CN1CCc2cc(F)ccc21)NC(=O)[C@H](CC1CCCCC1)Nc1nc2ccc(Cl)cc2s1 [Example 29, 3-(S)-[2-(S)-(6-Chloro-benzothiazol-2-ylamino)-3-cyclohexyl-propionylamino]-4-(5-fluoro-2,3-dihydro-indol-1-yl)-butyric acid] | < 100 nM |  |  | 
C[C@@H](CN1CCc2cc(F)ccc21)NC(=O)[C@H](CC1CCCCC1)Nc1nc2ccc(Cl)cc2s1 [Example 34, 2-(S)-(6-Chloro-benzothiazol-2-ylamino)-3-cyclohexyl-N-[2-(5-fluoro-2,3-dihydro-indol-1-yl)-1-(S)-methyl-ethyl]-propionamide] | < 100 nM |  |  | 
C[C@@H](CNc1ccc(OC(F)(F)F)cc1)NC(=O)[C@H](CC1CCCC1)Nc1nc2cccc(Cl)c2o1 [Example 39, 2-(S)-(7-Chloro-benzooxazol-2-ylamino)-3-cyclopentyl-N-[1-(S)-methyl-2-(4-trifluoromethoxy-phenylamino)-ethyl]-propionamide] | < 100 nM |  |  | 
C[C@@H](CNc1ccc(OC(F)(F)F)cc1)NC(=O)[C@H](CC(C)(C)C)Nc1nc2cccc(Cl)c2o1 [Example 41, 2-(S)-(7-Chloro-benzooxazol-2-ylamino)-4,4-dimethyl-pentanoic acid [1-(S)-methyl-2-(4-trifluoromethoxy-phenylamino)-ethyl]-amide] | < 100 nM |  |  | 
C[C@@H](CNc1ccc(OC(F)(F)F)cc1)NC(=O)[C@H](CC1CC1)Nc1nc2cccc(Cl)c2o1 [Example 43, 2-(S)-(7-Chloro-benzooxazol-2-ylamino)-3-cyclopropyl-N-[1-(S)-methyl-2-(4-trifluoromethoxy-phenylamino)-ethyl]-propionamide] | < 100 nM |  |  | 
